The source of these data is patent publication US9181259B2 (LEO PHARMA A/S, priority 2012, dated 2015).

The nature of series [1]: Hepatic intrinsic clearance following incubation in human liver microsomes. The class given is in vitro ADME. The following applies: NADPH regenerating system, 0-30 min, 37 °C. How it is done: Hepatic Extraction Ratio from Hepatic Intrinsic Clearance Following Incubation in Human Liver Microsomes
The general procedure consists of an automated incubation system and LC-MS/MS analysis with human liver microsomes. Human liver microsomes are thawed rapidly in a waterbath at 37° C. and kept on ice until use. The human liver microsomes are diluted with 50 mM potassium phosphate buffer pH 7.4 to a protein concentration of 0.55 mg/mL. Test compounds and positive controls (Verapamil and Dextromethorphan, positive controls for CYP3A4 for CYP2D6 isoforms, respectively) are dissolved in methanol (or other appropriate solvent, if necessary) in order to obtain a 5 mM solution which is further diluted to the concentration of 50 μM. The stock solutions are prepared immediately before the test.
5 μL of 50 μM test compounds and controls are added to 445 μL-of the 0.55 mg/mL microsomes solution and the incubation mixture are pre-warmed at 37° C. for 5 minutes.
The incubation reactions are initiated by adding 50 μL of pre-warmed NADPH regenerating system to the incubation mixtures. 50 μL-aliquots will be taken from the incubation mixtures at: 0, 3, 6, 9, 15 and 30 minutes and the reactions are stopped by adding 100 μL of ACN containing Rolipram, used as generic Internal Standard (1S). Samples are then diluted with 120 μL of Milli-Q water and centrifuged at 3000 rpm for 10 minutes, prior the LC-MS/MS analysis.
The integrated peak areas for test compounds at the selected time points are divided by the respective peak areas of the IS and the percent of parent remaining is calculated by normalizing the peak area ratio of parent to IS at 0 min. Observed rate constant (kobs) for parent degradation is calculated by determining the slope of the line of the graph of the natural log of percentage parent remaining versus time of incubation. From the rate of depletion (min-1) and volume of the incubation (mL), clearance is estimated. This is scaled for the protein in the incubation relative to that in the intact liver, for all species (mL/min/g liver).
Values for the Human in vitro Clint are expressed as mL/min/g liver.
Assuming a liver weight of 25.7 g/kg and a liver blood flow of 20.7 mL/min/kg, the hepatic extraction ratio, Eh, can be derived from the Human in vitro Clint:
E.g. a Human in vitro Clint of 2.4 mL/min/g liver corresponds to a hepatic extraction ratio of 75%.
Some compounds of the present invention were tested according to example 121.

Another series concerns the target T1, NK1 receptor (Homo sapiens, UniProt P25103).
T1 construct: Measurement of NK1 Receptor Mediated Intracellular [Ca^2+]; Mobilization in U251 MG Cells Using FLIPR; endogenous in cells; host or cells: U251 MG cells
Briefly: NK1 receptor mediated intracellular [Ca2+] mobilization in U251 MG cells using FLIPR. Type of series: cell-based. To be noted: antagonist potency against Substance P (EC80), normalized to 100 nM Aprepitant, read-out: U251MG (FLIPR pIC50) (converted). How it is done:
Measurement of NK1 Receptor Mediated Intracellular [Ca^2+] Mobilization in U251 MG Cells Using FLIPR
U251 MG cells were seeded into black walled clear-bottom 384-well plates (Greiner Bio-One GmbH, Frickenhausen, Germany) at a density of 15,000 cells/well in 50 μl culture medium and cultured overnight in a 37° C. 5% CO2 incubator. The cells were then loaded with the calcium sensitive dye Fluo-4 (Invitrogen) at 1 μM in buffer, containing 0.04%
Pluronic F-127 (Sigma-Aldrich), and 2.5 mM probenecid (Sigma-Aldrich) for 60 min in a humidified atmosphere of 5% CO2. Thereafter, cells were washed three times in washing buffer containing 20 mM HEPES and 2.5 mM probenecid pH 7.3. Serial dilutions of test compounds in assay buffer containing 2% dimethyl sulfoxide (final concentration in the cell plate is 0.5% DMSO) and/or agonist were then automatically pipetted into each test well, and the peak fluorescence intensity was recorded (lex, 488 nm; lem, 540 nm) by the FLIPR instrument (Molecular Devices) for approximately 5 min. To measure antagonist potency, cell plates were first incubated with the test compound and intracellular fluorescence recorded for 5 minutes to check a potential agonist effect of the test compound. Cell plates were quickly removed from the FLIPR instrument and incubated for additional 10 minutes at 37° C. before being moved back to the FLIPR instrument for Substance P (EC80) addition. The response was measured as the peak relative fluorescence change after agonist addition.
The IC50 value is defined as the molar concentration of a test compound that produces a response midway between the fitted top and the fitted bottom. pIC50=−log IC50
Formula is listed as follows: Fit(% Effect calculated)=(A+((B−A)/(1+((C/X)^D)))) • A: bottom value • B: top value • C: […] • D: Hill slope coefficient
Ref: Sullivan E, Tucker E M, and Dale I L. Measurement of [Ca^2+] using the Fluorometric Imaging Plate Reader (FLIPR). Methods Mol Biol 114:125-133, 1999.
Compounds of the present invention were tested according to example 120.

T1 sequence (P25103 whole entry): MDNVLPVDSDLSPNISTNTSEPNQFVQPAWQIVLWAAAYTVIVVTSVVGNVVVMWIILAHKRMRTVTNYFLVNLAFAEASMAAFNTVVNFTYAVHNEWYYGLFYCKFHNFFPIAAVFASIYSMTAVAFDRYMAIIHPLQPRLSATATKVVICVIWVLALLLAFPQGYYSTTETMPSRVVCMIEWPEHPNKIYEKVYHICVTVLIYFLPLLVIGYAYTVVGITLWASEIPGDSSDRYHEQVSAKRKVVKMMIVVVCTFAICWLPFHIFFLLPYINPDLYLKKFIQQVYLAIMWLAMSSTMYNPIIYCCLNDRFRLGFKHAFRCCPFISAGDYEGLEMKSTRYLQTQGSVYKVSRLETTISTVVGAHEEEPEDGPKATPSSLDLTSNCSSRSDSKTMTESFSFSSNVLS

For the molecule `Cc1ccccc1[C@H]1[C@@H]2CC(CCO)(CCO)C(=O)N2CCN1C(=O)N(C)[C@H](C)c1cc(Cl)cc(C(F)(F)F)c1` [Compound 89, (1S,8aS)-N-((R)-1-(3-chloro-5-(trifluoromethyl)phenyl)ethyl)-7,7-bis(2-hydroxyethyl)-N-methyl-6-oxo-1-o-tolylhexahydropyrrolo[1,2-a]pyrazine-2(1H)-carboxamide], the “Human in vitro Clint (mL/min/g liver)” value in series [1] turned out to be 15 mL/min/g liver. The IC50 at NK1 receptor is 126 pM.

With `Cc1cc([C@@H](C)N(C)C(=O)N2CCN3C(=O)C(CO)C[C@H]3[C@@H]2c2ccccc2C)cc(C(F)(F)F)c1` (stereo partly drawn) [Compound 102, (1S,8aS)-7-(hydroxymethyl)-N-methyl-N-((R)-1-(3-methyl-5-(trifluoromethyl)phenyl)ethyl)-6-oxo-1-o-tolylhexahydropyrrolo[1,2-a]pyrazine-2(1H)-carboxamide], in series [1], the “Human in vitro Clint (mL/min/g liver)” value was 5.6 mL/min/g liver. Besides, the IC50 at NK1 receptor was 214 pM.

Take `Cc1ccccc1[C@H]1[C@@H]2CCC(=O)N2CCN1C(=O)N(C)[C@H](C)c1cc(C(C)C)cc(C(F)(F)F)c1` [Compound 112, (1S,8aS)-N-((R)-1-(3-isopropyl-5-(trifluoromethyl)phenyl)ethyl)-N-methyl-6-oxo-1-o-tolylhexahydropyrrolo[1,2-a]pyrazine-2(1H)-carboxamide]: the “Human in vitro Clint (mL/min/g liver)” value in series [1] stood at 51 mL/min/g liver. Besides, the IC50 at NK1 receptor was 31.6 pM.

On to `Cc1ccccc1[C@H]1[C@@H]2CC(CO)(CO)C(=O)N2CCN1C(=O)N(C)[C@H](C)c1cc(C(F)(F)F)cc(C(F)(F)F)c1` [Compound 104, (1S,8aS)-N-((R)-1-(3,5-bis(trifluoromethyl)phenyl)ethyl)-7,7-bis(hydroxymethyl)-N-methyl-6-oxo-1-o-tolylhexahydropyrrolo[1,2-a]pyrazine-2(1H)-carboxamide], for which the “Human in vitro Clint (mL/min/g liver)” value in series [1] amounted to 3.1 mL/min/g liver. Moreover, on NK1 receptor, the IC50 is 100 pM.

For the molecule `Cc1ccccc1C1C2CCC(=O)N2CCN1C(=O)N(C)Cc1cc(F)cc(C(F)(F)F)c1` (single isomer, unassigned) [Compound 3, N-{[3-fluoro-5-(trifluoromethyl)phenyl]methyl}-N-methyl-1-(2-methylphenyl)-6-oxo-octahydropyrrolo[1,2-a]piperazine-2-carboxamide], the “Human in vitro Clint (mL/min/g liver)” value in series [1] is recorded as 9.5 mL/min/g liver. Moreover, the IC50 on NK1 receptor is 1380 pM.

Regarding `Cc1ccccc1C1C2CCC(=O)N2CCN1C(=O)N(C)Cc1cc(C(F)(F)F)cc(C(F)(F)F)c1` (single isomer, unassigned) [Compound 18, N-{[3,5-bis(trifluoromethyl)phenyl]methyl}-N-methyl-1-(2-methylphenyl)-6-oxo-octahydropyrrolo[1,2-a]piperazine-2-carboxamide], the “Human in vitro Clint (mL/min/g liver)” value in series [1] is reported as 2.8 mL/min/g liver. Further, at NK1 receptor, the IC50 is 603 pM.

Regarding `CCc1cc([C@@H](C)N(C)C(=O)N2CCN3C(=O)CC[C@H]3[C@@H]2c2ccccc2C)cc(C(F)(F)F)c1` [Compound 109, (1S,8aS)-N-((R)-1-(3-ethyl-5-(trifluoromethyl)phenyl)ethyl)-N-methyl-6-oxo-1-o-tolylhexahydropyrrolo[1,2-a]pyrazine-2(1H)-carboxamide], the “Human in vitro Clint (mL/min/g liver)” value in series [1] came out at 13 mL/min/g liver. Besides, at NK1 receptor, the IC50 is 100 pM.

On to `Cc1ccccc1C1C2CC(CO)CN2CCN1C(=O)N(C)[C@H](C)c1cc(C(F)(F)F)cc(C(F)(F)F)c1` (single isomer, unassigned) [Compound 70], for which, at NK1 receptor, the IC50 was 66100 pM.

Turning to `COC(=O)C1(C)CC2C(c3ccccc3C)N(C(=O)N(C)Cc3cc(C(F)(F)F)cc(C(F)(F)F)c3)CCN2C1=O` (stereo not shown) [Compound 11, Methyl 2-({[3,5-bis(trifluoromethyl)phenyl]methyl}(methyl)carbamoyl)-7-methyl-1-(2-methylphenyl)-6-oxo-octahydropyrrolo{1,2-a}piperazine-7-carboxylate], the IC50 at NK1 receptor is 813 pM.

In the case of `CC(=O)N1CCN(CC2CC3C(c4ccccc4C)N(C(=O)N(C)Cc4cc(C(F)(F)F)cc(C(F)(F)F)c4)CCN3C2=O)CC1` (stereo not shown) [Compound 37, 7-[(4-acetylpiperazin-1-yl)methyl]-N-{[3,5-bis(trifluoromethyl)phenyl]methyl}-N-methyl-1-(2-methylphenyl)-6-oxo-octahydropyrrolo[1,2-a]piperazine-2-carboxamide], on NK1 receptor, the IC50 was 309 pM.

For the molecule `Cc1ccccc1C1C2CCC(=O)N2CCN1C(=O)N(C)Cc1cc(C(F)(F)F)cc(C(F)(F)F)c1` (single isomer, unassigned) [Compound 17, N-{[3,5-bis(trifluoromethyl)phenyl]methyl}-N-methyl-1-(2-methylphenyl)-6-oxo-octahydropyrrolo[1,2-a]piperazine-2-carboxamide], the IC50 on NK1 receptor was 28200 pM.

As for `Cc1ccccc1C1C2CC(CO)CN2CCN1C(=O)N(C)[C@H](C)c1cc(C(F)(F)F)cc(C(F)(F)F)c1` (single isomer, unassigned) [Compound 68], on NK1 receptor, the IC50 is 4470 pM.

On to `Cc1ccccc1[C@H]1[C@@H]2CC(CCO)(CCO)C(=O)N2CCN1C(=O)N(C)C(CCO)c1cc(C(F)(F)F)cc(C(F)(F)F)c1` (single isomer, unassigned) [Compound 81], for which the IC50 on NK1 receptor is 120 pM.

For the molecule `Cc1ccccc1C1C2CCC(=O)N2CCN1C(=O)N(C)Cc1cc(C(F)(F)F)cc(C(F)(F)F)c1` (racemic) [Compound 16, N-{[3,5-bis(trifluoromethyl)phenyl]methyl}-N-methyl-1-(2-methylphenyl)-6-oxo-octahydropyrrolo[1,2-a]piperazine-2-carboxamide], at NK1 receptor, the IC50 is 229 pM.

With `Cc1ccccc1C1C2CC(C)(C(=O)O)C(=O)N2CCN1C(=O)N(C)Cc1cc(C(F)(F)F)cc(C(F)(F)F)c1` (stereo not shown) [Compound 8, 2-({[3,5-bis(trifluoromethyl)phenyl]methyl}(methyl)carbamoyl)-7-methyl-1-(2-methylphenyl)-6-oxo-octahydropyrrolo[1,2-a]piperazine-7-carboxylic acid], on NK1 receptor, the IC50 is 61700 pM.

On to `Cc1ccccc1C1C2CC(CO)C(=O)N2CCN1C(=O)N(C)Cc1cc(C(F)(F)F)cc(C(F)(F)F)c1` (single isomer, unassigned) [Compound 21, N-{[3,5-bis(trifluoromethyl)phenyl]methyl}-7-(hydroxymethyl)-N-methyl-1-(2-methylphenyl)-6-oxo-octahydropyrrolo[1,2-a]piperazine-2-carboxamide], for which the IC50 at NK1 receptor was 40.7 pM.

`Cc1ccccc1C1C2CC(CCO)C(=O)N2CCN1C(=O)N(C)C(CCO)c1cc(C(F)(F)F)cc(C(F)(F)F)c1` (single isomer, unassigned) [Compound 35, N-{1-[3,5-bis(trifluoromethyl)phenyl]-3-hydroxypropyl}-7-(2-hydroxyethyl)-N-methyl-1-(2-methylphenyl)-6-oxo-octahydropyrrolo[1,2-a]piperazine-2-carboxamide]: at NK1 receptor, the IC50 was 200 pM.

With `Cc1ccccc1C1C2CC(CN3CCOCC3)C(=O)N2CCN1C(=O)N(C)[C@H](C)c1cc(C(F)(F)F)cc(C(F)(F)F)c1` (single isomer, unassigned) [Compound 72], the IC50 at NK1 receptor was 8130 pM.
